Laboratory results published in US9504676B2, “Molecules inhibiting a metabolic pathway involving the Syk protein tyrosine kinase and method for identifying said molecules” (CENTRE NATIONAL DE LA RECHERCHE SCIENTIFIQUE, priority 2008, dated 2016).

Tested on: BALB/c mice
Test: IgE-induced passive systemic anaphylaxis (PSA)
Format: in vivo
Protocol: Finally, to extend these observations to mast cell functions in vivo, the inventors tested the effects of C-13 on passive systemic (PSA) and cutaneous anaphylaxis (PCA) induced in BALB/c mice by administering DNP-specific IgE molecules followed by intravenous stimulation with DNP-KLH hapten. […] The intensity of systemic anaphylaxis was determined by measuring both the drop in body temperature and the increase in vascular permeability following antigen administration.
• 1) Chemical products and antibodies. A chemical bank of 3000 molecules (a varied subset) was acquired from ChemBridge, Inc. (San Diego, Calif.). Stocks of solutions of small molecules were prepared at a rate of 10 mM in DMSO (dimethylsulphoxide), except for C-13 (methyl 2-{5-[(3-benzyl-4-oxo-2-thioxo-1,3-thiazolidin-5-ylidene)methyl]-2-furyl}benzoate, ChemBridge ID No. 6197026) prepared in DMF (dimethylformamide). Unless specified otherwise, all the reagents were supplied by Sigma. […] The binding of G4G11 with Syk was assessed by adding the 9E10 monoclonal antibody conjugated with HRP detecting the amino acid sequence EQKLISEEDLN of human c-myc protein located at the C-terminal end of the scFv fragment. To generate Syk mutants, targeted mutagenesis was used on GST:Syk 6-242 protein and the binding of G4G11 with the mutants was assessed in the presence of 5 μM of C-13. • 3) Cells, culture conditions and functional tests. […]

COC(=O)c1ccccc1-c1ccc(/C=C2/SC(=S)N(Cc3ccccc3)C2=O)o1 [Molecule C-13, methyl 2-{5-[(3-benzyl-4-oxo-2-thioxo-1,3-thiazolidin-5-ylidene)methyl]-2-furyl}benzoate]
colour of ears and tail (Evans blue extravasation) in PSA (oral administration of 130 mg/kg): light blue colour
hypothermia (drop in body temperature) in PSA (single oral dose of 100 mg/kg): inhibited hypothermia
